The values that follow come from patent US20110129935A1, “PROTEIN STABILITY ASSAY USING A FLUORESCENT REPORTER OF PROTEIN FOLDING” (James Cook University, priority 2008, published 2011).

One assay addresses CAT-GFP (Escherichia coli, UniProt P62577). Type of assay: binding. The conditions noted are these: 10 mM chloramphenicol, 9.2 mM ampicillin or 6.4% ethanol. Here is the method: (§1) Protein samples (6 or 10 μl) were incubated along a temperature gradient in a thermocycler for 5 minutes or 30 minutes for the determination of Tagg, or at a constant temperature and increasing times to determine kagg. After heat treatment and centrifugation as described above, 3 or 5 μl of supernatant were transferred to a black 96-well plate (Nunclon, Nunc, Rochester, N.Y., USA), diluted with 47 or 50 μl respectively of Buffer A or Buffer B and the fluorescent Ffold was determined with a fluorescence plate reader (Victor V Wallace, Perkin-Elmer, Melbourne VIC, Australia). The excitation and emission filters were set at 355 nm and 535 nm respectively, with 40 nm band-width. Data were normalized against the fluorescence of an untreated sample.
To determine the effect of ligands, CAT-GFP reaction premix contained 9.2 μl of CAT-GFP (71 μM in Buffer A), 51.6 μl of Buffer A and 4.2 μl of either 50 mg/ml chloramphenicol in ethanol or 50 mg/ml ampicillin in water. GK-GFP reaction premix contained 9.3 μl of GK-GFP (70 μM), 49.20 of Buffer A and 6.5 μl of either Buffer A+10 mM glycerol or Buffer A+10 mM glucose. Reaction volume was 10 μl and 5 μl of the soluble fraction was analysed by plate reader after centrifugation.
The S method was then further developed to evaluate the effect of ligand binding and additives in a rapid throughput format for the three test proteins using replicates of single timepoints (FIG. 6a-6c). […] Indeed, the temperature used to test for chloramphenicol binding had to be kept quite low and for a short time as GFP would have been destabilized in more stringent conditions. […] This non-specific stabilization could also be attributed to the low stringency of the conditions.

A further assay deals with GK-GFP (Escherichia coli, UniProt P0A6F3). Kind of assay: Rapid throughput S method, Ffold of GK-GFP with ligands or other proteins. In kind it is binding, E. coli. The conditions noted are these: 1 mM glycerol in presence of BSA 15 μM. Here is the method:
as §1
To determine the effect of ligands, CAT-GFP reaction premix contained 9.2 μl of CAT-GFP (71 μM in Buffer A), 51.6 μl of Buffer A and 4.2 μl of either 50 mg/ml chloramphenicol in ethanol or 50 mg/ml ampicillin in water. GK-GFP reaction premix contained 9.3 μl of GK-GFP (70 μM), 49.20 of Buffer A and 6.5 μl of either Buffer A+10 mM glycerol or Buffer A+10 mM glucose. Reaction volume was 10 μl and 5 μl of the soluble fraction was analysed by plate reader after centrifugation. […]

Another assay has as its target Tus-GFP (Escherichia coli, UniProt P16525, Q80R). Kind of assay: Isothermal aggregation of Tus-GFP with additives (kagg, S method). Details: species or system E. coli. The conditions noted are these: 46° C., 25% glycerol in 0.5× Buffer B. Here is the method: as §1, with “sample. […]” for “sample.”
The kagg (s^−1) measured the loss of fluorescence of the soluble fraction of proteins over time. The kagg values were determined by the exponential fit of normalized Ffold as follows:
To evaluate the kinetic parameters of the system, a 96-well plate format was designed that enabled measurement of the residual Ffold of Tus-GFP over time. Isothermal aggregation reactions were monitored at 46° C. to quantify the effect of stabilizing or destabilizing salts and additives on the kagg of Tus-GFP (FIG. 3). […]

Sequence of GK-GFP (P0A6F3 other isoform, or with tags, fused parts or gaps): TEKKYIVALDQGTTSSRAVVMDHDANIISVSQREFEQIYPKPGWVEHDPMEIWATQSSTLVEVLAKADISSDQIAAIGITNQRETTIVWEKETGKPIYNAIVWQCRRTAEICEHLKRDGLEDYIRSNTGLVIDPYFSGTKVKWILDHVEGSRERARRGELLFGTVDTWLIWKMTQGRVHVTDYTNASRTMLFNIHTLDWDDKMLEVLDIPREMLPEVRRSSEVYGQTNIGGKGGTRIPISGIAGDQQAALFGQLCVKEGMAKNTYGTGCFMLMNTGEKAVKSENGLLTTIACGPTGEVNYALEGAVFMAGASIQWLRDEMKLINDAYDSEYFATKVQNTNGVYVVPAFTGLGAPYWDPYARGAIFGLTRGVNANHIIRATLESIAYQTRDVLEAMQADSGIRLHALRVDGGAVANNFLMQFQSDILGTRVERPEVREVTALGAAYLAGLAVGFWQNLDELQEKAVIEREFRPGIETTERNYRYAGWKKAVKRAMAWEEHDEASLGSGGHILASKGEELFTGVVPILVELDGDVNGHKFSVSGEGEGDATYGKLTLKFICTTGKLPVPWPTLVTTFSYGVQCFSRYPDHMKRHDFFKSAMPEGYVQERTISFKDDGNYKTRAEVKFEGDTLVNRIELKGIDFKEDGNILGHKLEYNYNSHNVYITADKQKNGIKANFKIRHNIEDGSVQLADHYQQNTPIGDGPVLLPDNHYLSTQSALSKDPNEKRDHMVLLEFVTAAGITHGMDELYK

For `CC1(C)S[C@@H]2[C@H](NC(=O)[C@H](N)c3ccccc3)C(=O)N2[C@H]1C(=O)O` [ampicillin], the “stabilization of CAT-GFP (Ffold)” value on CAT-GFP is “moderate stabilization”. With `O=C(N[C@H](CO)[C@H](O)c1ccc([N+](=O)[O-])cc1)C(Cl)Cl` [chloramphenicol], on CAT-GFP, the “stabilization of CAT-GFP (Ffold)” value is given as “stabilizing”. As for `CCO` [ethanol], the “stabilization of CAT-GFP (Ffold)” value at CAT-GFP is reported as “almost the same stabilizing effect”. `OCC(O)CO` [glycerol]: the “stabilization of GK-GFP (Ffold)” value on GK-GFP is given as “almost completely stabilized”. For the same compound, the “stabilization effect on Tus-GFP (kagg)” value on Tus-GFP is recorded as “largest stabilization effect”.
